Laboratory results published in ChEMBL document CHEMBL5291721, “A preclinical secondary pharmacology resource illuminates target-adverse drug reaction associations of marketed drugs” (Nat Commun, 2023).

What was measured:
[1] = target: T1, B1 bradykinin receptor (Homo sapiens, UniProt P46663)
T1 sequence (P46663 whole entry): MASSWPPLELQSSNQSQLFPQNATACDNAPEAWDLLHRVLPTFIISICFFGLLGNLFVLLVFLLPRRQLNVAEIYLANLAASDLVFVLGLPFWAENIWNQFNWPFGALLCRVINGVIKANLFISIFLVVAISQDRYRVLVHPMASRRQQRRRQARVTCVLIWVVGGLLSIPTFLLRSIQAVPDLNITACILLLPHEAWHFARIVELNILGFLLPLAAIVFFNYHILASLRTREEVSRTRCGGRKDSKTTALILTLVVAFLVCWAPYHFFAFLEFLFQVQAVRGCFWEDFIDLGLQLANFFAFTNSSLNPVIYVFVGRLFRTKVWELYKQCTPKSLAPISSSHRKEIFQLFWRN

[2] = target: T2, D(4) dopamine receptor (Homo sapiens, UniProt P21917)
T2 sequence (P21917 whole entry): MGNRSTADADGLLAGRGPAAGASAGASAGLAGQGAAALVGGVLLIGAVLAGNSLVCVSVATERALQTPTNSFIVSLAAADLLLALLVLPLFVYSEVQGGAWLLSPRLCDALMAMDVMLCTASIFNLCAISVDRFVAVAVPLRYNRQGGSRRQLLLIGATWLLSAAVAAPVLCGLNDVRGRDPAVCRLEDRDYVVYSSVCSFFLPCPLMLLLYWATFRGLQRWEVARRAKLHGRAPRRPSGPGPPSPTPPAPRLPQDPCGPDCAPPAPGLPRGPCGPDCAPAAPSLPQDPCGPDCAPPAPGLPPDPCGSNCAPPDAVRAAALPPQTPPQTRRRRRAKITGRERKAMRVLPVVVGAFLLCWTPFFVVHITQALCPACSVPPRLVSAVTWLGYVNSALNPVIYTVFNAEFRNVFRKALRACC

[3] = target: T3, Alpha-2A adrenergic receptor (Homo sapiens, UniProt P08913)
T3 sequence (P08913 whole entry): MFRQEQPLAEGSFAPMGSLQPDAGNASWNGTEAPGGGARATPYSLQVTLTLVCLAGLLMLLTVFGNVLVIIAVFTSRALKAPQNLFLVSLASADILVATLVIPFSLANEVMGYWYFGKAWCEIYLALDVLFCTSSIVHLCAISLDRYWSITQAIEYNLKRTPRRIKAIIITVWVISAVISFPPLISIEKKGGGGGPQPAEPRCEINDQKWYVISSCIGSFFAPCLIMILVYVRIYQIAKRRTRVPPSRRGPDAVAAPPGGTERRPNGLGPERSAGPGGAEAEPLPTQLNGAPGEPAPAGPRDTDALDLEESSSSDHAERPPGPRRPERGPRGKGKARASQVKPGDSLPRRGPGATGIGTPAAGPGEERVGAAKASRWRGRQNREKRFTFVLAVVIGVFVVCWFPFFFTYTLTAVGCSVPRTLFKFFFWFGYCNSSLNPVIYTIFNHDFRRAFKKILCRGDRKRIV

[4] = target: Neurotensin receptor type 1 (Homo sapiens, UniProt P30989)
Neurotensin receptor type 1, sequence (P30989 whole entry): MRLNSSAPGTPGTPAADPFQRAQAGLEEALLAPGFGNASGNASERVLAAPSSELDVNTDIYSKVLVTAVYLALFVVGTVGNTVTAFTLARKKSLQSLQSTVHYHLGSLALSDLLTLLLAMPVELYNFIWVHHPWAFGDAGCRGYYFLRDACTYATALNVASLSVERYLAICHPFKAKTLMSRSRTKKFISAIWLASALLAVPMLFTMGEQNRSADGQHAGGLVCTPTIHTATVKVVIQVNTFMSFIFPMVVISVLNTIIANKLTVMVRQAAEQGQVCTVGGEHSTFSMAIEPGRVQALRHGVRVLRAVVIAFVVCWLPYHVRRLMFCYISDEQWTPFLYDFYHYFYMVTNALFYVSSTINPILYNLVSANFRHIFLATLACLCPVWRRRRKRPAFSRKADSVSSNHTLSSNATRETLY

[5] = target: D(1A) dopamine receptor (Homo sapiens, UniProt P21728)
D(1A) dopamine receptor, sequence (P21728 whole entry): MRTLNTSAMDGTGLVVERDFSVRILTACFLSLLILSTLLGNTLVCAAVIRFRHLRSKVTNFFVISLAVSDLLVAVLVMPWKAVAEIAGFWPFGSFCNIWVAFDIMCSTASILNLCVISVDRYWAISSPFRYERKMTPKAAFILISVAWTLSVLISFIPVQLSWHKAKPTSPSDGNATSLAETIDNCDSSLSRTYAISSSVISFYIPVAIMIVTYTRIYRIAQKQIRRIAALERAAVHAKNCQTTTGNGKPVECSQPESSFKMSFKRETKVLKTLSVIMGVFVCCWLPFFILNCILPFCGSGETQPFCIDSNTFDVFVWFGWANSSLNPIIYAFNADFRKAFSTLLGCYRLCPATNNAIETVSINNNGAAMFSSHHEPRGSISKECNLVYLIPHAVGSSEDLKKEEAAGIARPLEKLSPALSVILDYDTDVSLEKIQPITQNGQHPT

[6] = target: T4, Glucocorticoid receptor (Homo sapiens, UniProt P04150)
T4 sequence (P04150 whole entry): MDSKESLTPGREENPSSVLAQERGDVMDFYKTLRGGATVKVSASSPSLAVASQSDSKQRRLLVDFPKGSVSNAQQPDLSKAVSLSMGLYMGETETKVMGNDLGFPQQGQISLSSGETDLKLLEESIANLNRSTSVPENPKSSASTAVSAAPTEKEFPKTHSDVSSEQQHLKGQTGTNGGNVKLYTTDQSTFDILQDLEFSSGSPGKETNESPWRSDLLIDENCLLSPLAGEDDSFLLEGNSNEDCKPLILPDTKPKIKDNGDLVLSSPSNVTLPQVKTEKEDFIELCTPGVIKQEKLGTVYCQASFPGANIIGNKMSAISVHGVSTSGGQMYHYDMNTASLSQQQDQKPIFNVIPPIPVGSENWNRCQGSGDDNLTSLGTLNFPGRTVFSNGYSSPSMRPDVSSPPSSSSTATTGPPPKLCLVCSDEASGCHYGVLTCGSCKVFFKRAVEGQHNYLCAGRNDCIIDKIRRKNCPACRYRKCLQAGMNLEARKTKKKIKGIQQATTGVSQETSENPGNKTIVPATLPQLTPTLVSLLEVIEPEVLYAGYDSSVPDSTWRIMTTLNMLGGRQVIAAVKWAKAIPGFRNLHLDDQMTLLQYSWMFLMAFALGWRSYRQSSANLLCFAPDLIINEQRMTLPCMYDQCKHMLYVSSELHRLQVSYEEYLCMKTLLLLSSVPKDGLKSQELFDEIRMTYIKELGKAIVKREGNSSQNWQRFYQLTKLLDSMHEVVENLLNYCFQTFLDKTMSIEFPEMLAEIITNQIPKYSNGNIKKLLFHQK

[7] = target: T5, Gamma-aminobutyric acid receptor subunit alpha-1/alpha-2/beta-2/gamma-2 (Homo sapiens, UniProt P14867+P18507+P47869+P47870); type: functional, cell-based
T5 sequence (P14867 whole entry): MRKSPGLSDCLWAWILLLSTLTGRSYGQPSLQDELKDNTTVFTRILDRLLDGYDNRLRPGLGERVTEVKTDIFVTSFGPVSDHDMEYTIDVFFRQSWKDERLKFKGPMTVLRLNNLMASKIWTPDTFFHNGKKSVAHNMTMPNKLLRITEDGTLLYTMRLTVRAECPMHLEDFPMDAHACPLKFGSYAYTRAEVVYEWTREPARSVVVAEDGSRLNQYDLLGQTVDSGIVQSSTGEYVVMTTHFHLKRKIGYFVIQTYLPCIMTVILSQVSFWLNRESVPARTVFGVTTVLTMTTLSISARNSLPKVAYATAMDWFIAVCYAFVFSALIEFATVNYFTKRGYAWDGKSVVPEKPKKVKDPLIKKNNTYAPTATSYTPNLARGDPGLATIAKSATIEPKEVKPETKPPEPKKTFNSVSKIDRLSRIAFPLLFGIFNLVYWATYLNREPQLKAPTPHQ
T5 sequence (P47870 whole entry): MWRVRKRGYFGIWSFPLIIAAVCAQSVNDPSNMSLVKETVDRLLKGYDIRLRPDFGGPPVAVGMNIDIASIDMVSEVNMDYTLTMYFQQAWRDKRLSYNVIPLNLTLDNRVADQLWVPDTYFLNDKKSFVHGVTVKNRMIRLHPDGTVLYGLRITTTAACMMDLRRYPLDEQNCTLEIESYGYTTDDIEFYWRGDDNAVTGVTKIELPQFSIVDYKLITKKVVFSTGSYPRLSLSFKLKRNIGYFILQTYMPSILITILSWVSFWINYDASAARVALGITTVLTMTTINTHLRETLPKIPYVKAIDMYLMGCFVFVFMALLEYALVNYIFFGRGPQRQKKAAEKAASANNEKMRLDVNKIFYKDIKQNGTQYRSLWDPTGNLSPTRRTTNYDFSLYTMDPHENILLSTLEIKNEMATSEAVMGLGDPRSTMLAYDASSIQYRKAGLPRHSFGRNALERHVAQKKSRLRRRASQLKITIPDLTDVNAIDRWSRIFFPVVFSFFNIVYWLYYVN
T5 sequence (P18507 whole entry): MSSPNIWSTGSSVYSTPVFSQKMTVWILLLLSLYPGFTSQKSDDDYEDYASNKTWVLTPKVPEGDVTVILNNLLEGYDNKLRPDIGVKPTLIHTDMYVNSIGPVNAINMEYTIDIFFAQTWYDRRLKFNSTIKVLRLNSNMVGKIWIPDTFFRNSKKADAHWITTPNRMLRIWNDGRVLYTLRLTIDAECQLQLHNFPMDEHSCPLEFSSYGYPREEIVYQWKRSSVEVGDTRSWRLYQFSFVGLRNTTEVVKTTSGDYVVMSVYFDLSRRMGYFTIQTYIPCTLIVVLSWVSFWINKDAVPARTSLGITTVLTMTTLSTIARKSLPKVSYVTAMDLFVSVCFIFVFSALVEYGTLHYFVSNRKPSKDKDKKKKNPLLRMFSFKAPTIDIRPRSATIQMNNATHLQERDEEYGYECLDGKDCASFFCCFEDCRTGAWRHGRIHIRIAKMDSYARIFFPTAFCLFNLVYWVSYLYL
T5 sequence (P47869 whole entry): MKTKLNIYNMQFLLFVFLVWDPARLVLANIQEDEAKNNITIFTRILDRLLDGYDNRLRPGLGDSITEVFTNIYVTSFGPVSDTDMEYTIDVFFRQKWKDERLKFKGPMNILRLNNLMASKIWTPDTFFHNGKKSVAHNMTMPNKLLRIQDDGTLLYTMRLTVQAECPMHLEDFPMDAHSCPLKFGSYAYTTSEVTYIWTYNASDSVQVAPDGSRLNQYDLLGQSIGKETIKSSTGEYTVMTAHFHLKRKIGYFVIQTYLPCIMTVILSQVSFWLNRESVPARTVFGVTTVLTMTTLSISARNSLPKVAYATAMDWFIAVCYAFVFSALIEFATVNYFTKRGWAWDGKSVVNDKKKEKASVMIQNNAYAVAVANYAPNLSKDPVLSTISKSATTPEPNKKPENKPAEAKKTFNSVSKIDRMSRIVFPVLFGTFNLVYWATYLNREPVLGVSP

[8] = target: T5, Gamma-aminobutyric acid receptor subunit alpha-1/alpha-2/beta-2/gamma-2; type: functional, cell-based; remark: listed apart in the source
[9] = target: T6, Adenosine receptor A1 (Homo sapiens, UniProt P30542)
T6 sequence (P30542 whole entry): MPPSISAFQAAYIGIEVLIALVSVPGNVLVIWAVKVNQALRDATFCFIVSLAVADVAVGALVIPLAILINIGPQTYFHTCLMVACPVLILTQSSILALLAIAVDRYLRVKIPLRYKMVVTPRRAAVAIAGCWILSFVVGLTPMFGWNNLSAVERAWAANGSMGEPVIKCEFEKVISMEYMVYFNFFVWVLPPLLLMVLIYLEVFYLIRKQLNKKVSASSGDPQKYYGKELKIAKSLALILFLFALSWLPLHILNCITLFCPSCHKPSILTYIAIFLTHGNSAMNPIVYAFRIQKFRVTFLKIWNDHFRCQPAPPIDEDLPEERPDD
Note: assay procedure not described here.

Row | Compound | AC50 [1] [µM] | AC50 [2] [µM] | AC50 [3] [µM] | AC50 [4] [µM] | AC50 [5] [µM] | AC50 [6] [µM] | AC50 [7] [µM] | AC50 [8] [µM] | AC50 [9] [µM]
1 | Nc1ccc(S(=O)(=O)Nc2nccs2)cc1 [SULFATHIAZOLE] | > 30 | > 10 | > 10 | > 30 | > 10 | > 30 | – | – | –
2 | CC(C)Cc1ccc(C(C)C(=O)O)cc1 (configuration not stated) [IBUPROFEN] | > 30 | > 10 | > 10 | > 30 | > 10 | > 30 | – | – | –
3 | Cc1onc(-c2ccccc2)c1-c1ccc(S(N)(=O)=O)cc1 [VALDECOXIB] | > 30 | > 10 | > 10 | > 30 | > 10 | > 30 | – | – | –
4 | COc1ccccc1OCCNCC(O)COc1cccc2[nH]c3ccccc3c12 (configuration not stated) [CARVEDILOL] | > 30 | 0.0172 | 0.189 | > 30 | 2.28 | > 30 | – | – | –
5 | C=CC[C@@H]1/C=C(\C)C[C@H](C)C[C@H](OC)[C@H]2O[C@@](O)(C(=O)C(=O)N3CCCC[C@H]3C(=O)O[C@H](/C(C)=C/[C@@H]3CC[C@@H](O)[C@H](OC)C3)[C@H](C)[C@@H](O)CC1=O)[C@H](C)C[C@@H]2OC [TACROLIMUS ANHYDROUS] | > 30 | > 10 | > 10 | > 30 | > 10 | > 30 | > 30 | > 30 | –
6 | CCCN(CCC)C(=O)Cc1c(-c2ccc(Cl)cc2)nc2ccc(Cl)cn12 [ALPIDEM] | > 10 | > 10 | > 10 | – | > 10 | – | > 10 | > 10 | 14.4
7 | CCCC(CCC)C(=O)O [VALPROIC ACID] | > 30 | > 10 | > 10 | > 30 | > 10 | > 30 | – | – | > 30
8 | N[C@@H](CC(=O)N1CCn2c(nnc2C(F)(F)F)C1)Cc1cc(F)c(F)cc1F [SITAGLIPTIN] | > 10 | > 10 | > 10 | > 10 | > 10 | – | > 30 | > 30 | –
9 | CN(C)CCc1c[nH]c2ccc(Cn3cncn3)cc12 [RIZATRIPTAN] | > 30 | > 10 | > 10 | > 30 | > 10 | – | > 30 | > 30 | –
10 | COc1cc2nc(N3CCN(C(=O)C4CCCO4)CC3)nc(N)c2cc1OC (configuration not stated) [TERAZOSIN] | > 30 | > 10 | 7.27 | > 30 | > 10 | > 30 | – | – | > 30
